{
  "source": "patent US11279726B2",
  "about": "“Norbornene-based amphipathic compound and utilization thereof” (Industry-University Cooperation Foundation Hanyang …, priority 2017, dated 2022)",
  "key": {"[1]": {"test": "Critical micelle concentration by fluorescent staining with diphenylhexatriene (DPH)", "assay_type": "physicochemical", "settings": "aqueous solution", "experimental": "A method for measuring CMC is not particularly limited, and a method widely known in the art may be used, for example, by fluorescence staining with diphenylhexatriene (DPH).\nTo identify the characteristics of NBMs synthesized in Preparation Example 1 to 6 according to the synthetic method of Example 1, molecular weights (MWs) of NBMs, critical micelle concentrations (CMCs) and hydrodynamic radii (Rh) of the micelles were measured.\nSpecifically, the critical micelle concentrations (CMCs) were measured by fluorescent staining with diphenylhexatriene (DPH), and the hydrodynamic radii (Rh) of the micelle formed with individual agents (1.0 wt %) were measured by dynamic light scattering (DLS)."}, "[2]": {"target": "T1, Salmonella typhimurium melibiose permease (MelBSt) (Salmonella typhimurium, UniProt P30878)", "T1 construct": "made in house; host or cells: E. coli DW2 (ΔmelB, ΔlacZY)", "test": "MelBSt extraction and thermostability (SDS-PAGE / western blotting)", "settings": "1.5 wt %, elevated temperature", "experimental": "An experiment of measuring structural stability of MelBSt (Salmonella typhimurium melibiose permease) protein with NBMs was carried out. The MelBSt protein was extracted from the membrane using NBMs or DDM, and the amounts and structure of the extracted proteins were analyzed by SDS-PAGE and western blotting. The concentration of the used amphiphilic compound was 1.5 wt %. The proteins were extracted at four temperatures (0, 45, 55, and 65° C.) and incubated at the same temperature for 90 minutes, and the amounts of the remaining proteins solubilized in an aqueous solution were measured, so as to simultaneously evaluate both performances of the compound such as protein extraction efficiency and stabilization activity. The amounts of the proteins extracted and stabilized by respective amphiphilic molecules were represented as relative values (%) to the amounts of total proteins contained in the membrane sample not treated with an amphiphilic molecule.\nSpecifically, Salmonella typhimurium melibiose permease (MelBSt) with a C-terminal 10-His tag was expressed in E. coli DW2 cells (^ΔmelB and ^ΔlacZY) using plasmid pK95^ΔAHB/WT MelBSt/CH10. Cell growth and membrane preparation were carried out according to the method described in the literature written by A. S. Ethayathulla et al. (Nat. Commun. 2014, 5, 3009). Protein assays were carried out with a Micro BCA kit (Thermo Scientific, Rockford, Ill.). The measurement of MelBSt stability was carried out on NBMs or DDM according to the protocol described by P. S. Chae et al. (Nat. Methods 2010, 7, 1003-1008). Membrane samples containing MelBSt (final protein concentration was 10 mg/mL) were incubated with a solubilization buffer (20 mM sodium phosphate, pH 7.5, 200 mM NaCl, 10% glycerol, 20 mM melibiose) and 1.5% (w/v) of DDM or NBMs (X-NBM-C10, D-NBM-C10, X-NBM-C11 or D-NBM-C11) at four different temperatures (0, 45, 55, 65° C.) for 90 minutes. To remove insoluble materials, following ultracentrifugation at 355,590 g using a Beckman Optimal™ MAX ultracentrifuge with TLA-100 rotor for 45 minutes at 4° C. was performed, and 20 μg of each protein sample was separated by SDS-16% PAGE, and then immunoblotted with a Penta-His-HRP antibody (Qiagen, Germantown, Md.). MelBSt was detected using SuperSignal West Pico chemiluminescent substrate by an ImageQuant LAS 4000 Biomolecular Imager (GE Health Care Life Science)."}, "β2AR / β2AR-Gs complex [3]": {"target": "T2, β2AR / β2AR-Gs complex (Homo sapiens, UniProt P07550)", "T2 construct": "Flag; made in house", "test": "Size exclusion chromatography of β2AR and β2AR-Gs complex after amphiphile exchange", "settings": "after amphiphile exchange, 20x CMC", "experimental": "(§1) β2AR purified with 0.1 wt % DDM was loaded onto an M1 Flag column in the presence of 2 mM […], and the column was washed with a DDM or X-NBM-C11 buffer (20 mM HEPES pH 7.5, 100 mM NaCl, 0.2% respective amphiphile). The receptor was eluted in 20× CMC DDM or X-NBM-C11 containing 5 mM EDTA and 0.2 mg/ml free Flag peptide. The eluate was further applied to a superdex-200 10/300 GL column (GE healthcare) at 0.5 ml/min, and UV absorbance at 280 nm was recorded. The running buffer contained 20 mM HEPES pH 7.5, 100 mM NaCl, 20× CMC individual detergents (DDM and X-NBM-C11).\n(§2) In addition, GPCR-Gs complex purified in DDM was replaced with X-NBM-C11 through amphiphilic molecule exchange, and sample aliquots were obtained at regular intervals in 21-day incubation at 4° C. to measure complex stability."}, "β2AR / β2AR-Gs complex [4]": {"test_system": "β2AR / β2AR-Gs complex", "test": "Size exclusion chromatography of β2AR and β2AR-Gs complex after amphiphile exchange", "design": "species or system human", "settings": "21-day incubation at 4° C.", "experimental": "as §1, §2"}, "mBBr-β2AR": {"target": "mBBr-β2AR (Homo sapiens, UniProt P07550)", "test": "Gs-protein coupling assay, bimane fluorescence of mBBr-β2AR", "settings": "0.1% amphiphile, 2 μM ISO, 250 nM Gs", "experimental": "To investigate a protein function, the receptor was conjugated with a fluorophore (monobromobimane; mBBr). The mBBr-β2AR was used to monitor the conformational changes of the receptor in the presence of binding partners (isopreoterenol (ISO) and Gs-protein) through fluorescence measurement, and detailed experimental methods are as follows.\n0.5 μl undispersed mBBr-labeled receptor at 50 μM in DDM was diluted with 500 μl 0.1% NBM or DDM-containing buffer, and incubated for 15 minutes at room temperature, thereby obtaining a receptor having a final concentration of 50 nM. 2 μM isoproterenol (ISO) was added and the resulting solution was further incubated for 15 minutes at room temperature. After addition of 250 nM Gs, the protein samples were further incubated at room temperature for 20 minutes. Bimane fluorescence was measured by excitation at 370 nm, and emission spectra were recorded from 430 nm to 510 nm in a unit of 1 nm increments with 0.5 nm/s integration on a Spex FluoroMax-3 spectrofluorometer (Jobin Yvon Inc.) in photon counting mode set at 4-nm emission bandwidth pass. The mBBr response in 0.1% DDM was used as a positive control."}, "β2AR-Gs complex": {"target": "β2AR-Gs complex (Homo sapiens, UniProt P07550)", "test": "Negative stain EM analysis of β2AR-Gs complex", "experimental": "A β2AR-Gs protein complex was prepared for electron microscopy using the conventional negative staining protocol, and imaged at room temperature with a Tecnai T12 electron microscope operated at 120 kV using low-dose procedures. Images were recorded at a magnification of 71,138× and a defocus value of approximately 1.4μ using a Gatan US4000 CCD camera. All images were binned (2×2 pixels) to obtain a pixel size of 4.16 A at the specimen level. Particles were manually excised using e2boxer (part of the EMAN2 software suite). 2D reference-free alignment and classification of particle projections were performed using ISAC. 14,556 projections of β2AR-Gs were subjected to ISAC, producing 199 classes consistent over two-way matching and accounting for 10,100 particle projections."}},
  "data": [
    {"smiles": "CCCCCCCCCCCOCC1C2CC([C@@H]1COCCCCCCCCCCC)[C@H](O[C@@H]1OC(CO)[C@@H](O[C@H]3OC(CO)[C@@H](O)C(O)C3O)C(O)C1O)C2O[C@@H]1OC(CO)[C@@H](O[C@H]2OC(CO)[C@@H](O)C(O)C2O)C(O)C1O", "note": "(stereo partly drawn) [D-NBM-C11]", "values": [
      {"measurement": "CMC", "setting": "[1]", "result": "~0.007", "unit": "mM"},
      {"measurement": "CMC (wt %)", "setting": "[1]", "result": "~0.0008", "unit": "wt %"},
      {"measurement": "MelBSt membrane protein stabilization activity (overall)", "setting": "[2]", "result": "excellent membrane protein stabilization activity"}
    ]},
    {"smiles": "CCCCCCCCCCCOCC1C2CC([C@H]1COCCCCCCCCCCC)[C@H](O[C@@H]1OC(CO)[C@@H](O[C@H]3OC(CO)[C@@H](O)C(O)C3O)C(O)C1O)C2O[C@@H]1OC(CO)[C@@H](O[C@H]2OC(CO)[C@@H](O)C(O)C2O)C(O)C1O", "note": "(stereo partly drawn) [X-NBM-C11]", "values": [
      {"measurement": "CMC", "setting": "[1]", "result": "~0.006", "unit": "mM"},
      {"measurement": "CMC (wt %)", "setting": "[1]", "result": "~0.0007", "unit": "wt %"},
      {"measurement": "Size/homogeneity of β2AR protein-detergent complexes (SEC)", "setting": "β2AR / β2AR-Gs complex [3]", "result": "homogeneous PDCs with the same size as that formed by DDM"},
      {"measurement": "β2AR-Gs complex stability by SEC profiles", "setting": "β2AR / β2AR-Gs complex [4]", "result": "perfectly maintained complex stability"},
      {"measurement": "Conformational change / function of mBBr-β2AR with ISO and Gs", "setting": "mBBr-β2AR", "result": "retains an original protein function"},
      {"measurement": "Particle dispersity of β2AR-Gs complex in negative stain EM", "setting": "β2AR-Gs complex", "result": "highly mono-dispersed particles"}
    ]}
  ]
}
